According to US9603836B2, “Pyrrolidine-2, 5-dione derivatives, pharmaceutical compositions and methods for use as IDO1 inhibitors” (ITEOS THERAPEUTICS, priority 2014, dated 2017):

Key:
hIDO1 [1] = biological target: T1, hIDO1 (Homo sapiens (Human), UniProt P14902); test: Cellular assay for IDO activity determination: hIDO1 P815 cells; assay type: cell-based; conditions: P815 cells overexpressing hIDO1, 24 hours
Description: To determine IDO1 activity, the cells were incubated 24 hours at 37° C. at 5% CO2 in IMDM (Invitrogen) supplemented with 2% FBS and 2% penicillin/streptomycin in the presence of the compounds of the present invention, at different concentrations.
The plates were then centrifuged 5 min at 1000 rpm, and 100 μL of the supernatant were collected in a conical plate, 30 uL of TCA 30% were added and a further centrifugated at 3000×g for 10 minutes. 100 μL of the supernatant were collected in a flat bottomed plate and 100 μL of 2% (w/v) 4-(dimethylamino)-benzaldehyde in acetic acid and incubated for 5 min at room temperature. […] A standard curve was made with pure kynurenine.

hIDO1 [2] = biological target: T1, hIDO1; test: Assay for IDO1 enzymatic activity determination; assay type: biochemical; conditions: human recombinant IDO1 enzyme, L-Trp 100 μM
Description: To measure enzymatic activity of human IDO1, the reaction mixture contained (final concentrations) potassium phosphate buffer (50 mM, pH 6.5), ascorbic acid (10 mM), methylene blue (5 μM) and human recombinant IDO1 enzyme (prepared as described in Rohrig et al. J Med Chem, 2012, 55, 5270-5290; final concentration 5 μg/mL) without or with the compounds of the present invention at the indicated concentrations (total volume 112.5 μL). The reaction was initiated by the addition of 37.5 μL of L-Trp (final concentration 100 μM) at room temperature. The reaction was conducted at room temperature during 15 minutes and stopped by the addition of 30 μL of 30% (w/v) trichloroacetic acid.
To convert N-formylkynurenine into kynurenine, the reaction mixture was incubated at 65° C. for 30 min. Then 120 μL of 2.5% (w/v) 4-(dimethylamino)-benzaldehyde in acetic acid were added and the mixture incubated for 5 min at room temperature. Kynurenine concentrations were determined by measuring the absorbance at 480 nm. A standard curve was made with pure kynurenine. The IDO1 activity was measured as described above using ten serial concentrations of the compounds of the present invention. Data were fitted using the Prism software (GraphPad Software, Inc.).

Kynurenine = test: In-vivo inhibition of blood kynurenine levels in healthy mice; parameters: species or system mouse; conditions: two hours
Description: The compounds of the present invention reduce the amount of Kynurenine in healthy mouse blood.
Briefly, mice were treated with either a suspension of one of the compounds of the present invention in 0.5% hydroxypropyl methylcellulose (HPMC) K4M/0.25% Tween 20 at different doses, or with a vehicle control (0.5% HPMC K4M/0.25% Tween 20), by the oral route by gavage (dosing volume 5 mL/kg, 10 mice per group). After two hours, blood was harvested, plasma was prepared and the amount of Kynurenine present was determined by LC-MS-MS (HPLC column Unison UK-Phenyl, 75×4.6, 3 μm, flow rate 0.8 mL/min, 4 minutes gradient from water+0.2% acetic acid to methanol+0.1% formic acid, retention time 2.7 min; API4000™ MS-MS system from AB Sciex, ESI+ mode, parent ion 209.2, daughter ion 94.1).

PancO2 tumors = test: In vivo efficacy in PancO2 pancreatic cancer syngeneic model; parameters: species or system C57/B16 mice; conditions: PancO2, 100 mg/kg BID oral
Description: In vivo efficacy studies of the Compounds of the present invention were performed on PancO2 syngeneic tumor model of C57/B16 mice implanted subcutaneously. Five millions PancO2 pancreas cancer cells were implanted subcutaneously to 7 weeks old C57/B16 mice (day 0). Animals were randomized based on tumor size when tumor average reached 60 mm^3 (between day 10 and 12) into different treatment cohorts. The Compound was administered orally twice per day (approximately at 9 am and 5 pm) starting the day of randomization. The Compound was suspended into Methocel vehicle and sonicated before oral administration to animals using gavage needles. Treatment was administered daily until the end of the study. All experimental animals were monitored for body weight changes weekly. Tumor volume was measured weekly using a caliper device and calculated with the following formula: Tumor volume=0.5×(length×width^2). Studies were terminated before tumor volumes reached 2000 mm. TGI (% tumor growth inhibition) was determined as
Treatment was administered daily until the end of the study. Tumor volume was measured weekly using a caliper device and calculated with the following formula: Tumor volume=0.5×(length×width^2). Mice were considered as dead when tumor size reached 400 mm^3. […] SEM refers to standard error of measurement.

hIDO1 [3] = biological target: T1, hIDO1; test: Cellular assay for IDO1 activity determination: HeLa cells; assay type: cell-based; conditions: HeLa cells stimulated with IFNγ
Description: The assay was performed in 96-well flat bottom plates seeded with the human cervical cancer HeLa cell line with stimulation with IFN.
To adhere HeLa cells (concentration of 5×10^3 cells/well) were incubated overnight at 37° C. at 5% CO2 in EMEM (Lonza) supplemented with 10% FBS, 2% penicillin/streptomycin and 2 mM Ultraglutamin, in a final volume of 200 μL.
To stimulate the expression of IDO1, cells were then incubated two days at 37° C. at 5% CO2 in EMEM (Lonza) supplemented with 2% FBS, 2% penicillin/streptomycin and 2 mM Ultraglutamine and 100 ng/mL IFNγ (R&D).
To determine IDO1 activity, medium was removed then the cells were incubated one day at 37° C. at 5% CO2 in EMEM (Lonza) supplemented with 2% FBS and 2% penicillin/streptomycin in the presence of the compounds of the present invention, at different concentrations. Then 100 μL of the supernatant were collected in a conical plate, 30 uL of TCA 30% were added and a centrifugation was made at 3000×g for 10 minutes. 100 μL of the supernatant were collected in a flat bottom plate and 100 μL of 2% (w/v) 4-(dimethylamino)-benzaldehyde in acetic acid and incubated for 5 min at room temperature. […] A standard curve was made with pure kynurenine.

T1 sequence (P14902 whole entry): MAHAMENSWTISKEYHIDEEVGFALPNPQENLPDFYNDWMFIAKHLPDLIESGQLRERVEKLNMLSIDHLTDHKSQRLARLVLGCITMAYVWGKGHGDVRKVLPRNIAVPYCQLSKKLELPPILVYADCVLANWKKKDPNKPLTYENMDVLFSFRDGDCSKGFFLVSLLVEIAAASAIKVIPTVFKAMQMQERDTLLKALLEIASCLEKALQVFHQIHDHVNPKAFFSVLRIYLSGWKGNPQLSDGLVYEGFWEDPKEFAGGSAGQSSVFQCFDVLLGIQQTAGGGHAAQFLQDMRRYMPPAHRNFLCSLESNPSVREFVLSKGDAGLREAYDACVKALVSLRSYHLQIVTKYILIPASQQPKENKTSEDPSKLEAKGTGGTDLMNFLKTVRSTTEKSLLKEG

| SMILES | IC50 (hIDO1 [2]) [nM] | other results |
| --- | --- | --- |
| O=C1CC(c2c[nH]c3cc(F)c(F)cc23)C(=O)N1 (stereo not drawn) [Compound 15, 3-(5,6-difluoro-1H-indol-3-yl)pyrrolidine-2,5-dione] | 1800 | IC50 (hIDO1 [1]): 260 nM |
| N#Cc1ccc2c(C3CC(=O)NC3=O)c[nH]c2c1 (stereo not drawn) [Compound 22, 3-(2,5-dioxopyrrolidin-3-yl)-1H-indole-6-carbonitrile] | 1700 |  |
| O=C1C[C@H](c2c[nH]c3ccc(F)cc23)C(=O)N1 [Compound 2, (−)-(R)-3-(5-fluoro-1H-indol-3-yl)pyrrolidine-2,5-dione] |  | Kynurenine concentration in plasma (average ± standard error of the mean) (Kynurenine; 10 mg/kg oral): 122 ± 3.5 ng/mL; inhibition of circulating Kynurenine (Kynurenine; 10 mg/kg oral): 39%; Kynurenine concentration in plasma (average ± standard error of the mean) (Kynurenine; 30 mg/kg oral): 91.0 ± 4.4 ng/mL; inhibition of circulating Kynurenine (Kynurenine; 30 mg/kg oral): 55%; Kynurenine concentration in plasma (average ± standard error of the mean) (Kynurenine; 100 mg/kg oral): 64.0 ± 3.8 ng/mL; inhibition of circulating Kynurenine (Kynurenine; 100 mg/kg oral): 68%; Mean tumor volume +/− SEM on day 55 (PancO2 tumors): 586.6 +/− 48.4 mm^3; TGI +/− SEM (Tumor growth inhibition) (PancO2 tumors; day 55): 16.8% +/− 8.2 |
| Cc1ccc2[nH]cc(C3CC(=O)NC3=O)c2c1 (stereo not drawn) [Compound 12, 3-(5-methyl-1H-indol-3-yl)pyrrolidine-2,5-dione] | 53000 |  |
| O=C1CC(c2c[nH]c3cc(Br)ccc23)C(=O)N1 (stereo not drawn) [Compound 19, 3-(6-bromo-1H-indol-3-yl)pyrrolidine-2,5-dione] | 420 |  |
| O=C1C[C@H](c2c[nH]c3ccc(Cl)cc23)C(=O)N1 [Compound 6, (−)-(R)-3-(5-chloro-1H-indol-3-yl)pyrrolidine-2,5-dione] | 2200 | IC50 (hIDO1 [3]): 3400 nM |
| O=C1C[C@H](c2c[nH]c3ccccc23)C(=O)N1 [Compound 4, (−)-(R)-3-(1H-indol-3-yl)pyrrolidine-2,5-dione] | 1800 | IC50 (hIDO1 [1]): 240 nM |
| Cc1ccc2c(C3CC(=O)NC3=O)c[nH]c2c1 (stereo not drawn) [Compound 20, 3-(6-methyl-1H-indol-3-yl)pyrrolidine-2,5-dione] | 54000 |  |
| O=C1C[C@@H](c2c[nH]c3ccc(Cl)cc23)C(=O)N1 [Compound 6a, (+)-(S)-3-(5-chloro-1H-indol-3-yl)pyrrolidine-2,5-dione] | > 50000 |  |
| O=C1C[C@H](c2c[nH]c3cc(Br)c(F)cc23)C(=O)N1 [Compound 10, (R)-3-(6-bromo-5-fluoro-1H-indol-3-yl)pyrrolidine-2,5-dione] | 620 |  |
| O=C1CC(c2cccc3cc(F)ccc23)C(=O)N1 (stereo not drawn) [Compound 24, 3-(6-fluoronaphthalen-1-yl)pyrrolidine-2,5-dione] | 1700 |  |
| O=C1C[C@H](c2c[nH]c3cc(Cl)c(F)cc23)C(=O)N1 [Compound 8, (R)-3-(6-chloro-5-fluoro-1H-indol-3-yl)pyrrolidine-2,5-dione] |  | IC50 (hIDO1 [3]): 3600 nM |
| O=C1CC(c2c[nH]c3ccccc23)C(=O)N1 (stereo not drawn) [Compound 3, 3-(1H-indol-3-yl)pyrrolidine-2,5-dione] | 3000 | IC50 (hIDO1 [1]): 920 nM |
| O=C1CC(c2cccc3ccc(F)cc23)C(=O)N1 (stereo not drawn) [Compound 25, 3-(7-fluoronaphthalen-1-yl)pyrrolidine-2,5-dione] | 4600 |  |
| O=C1C[C@@H](c2c[nH]c3ccccc23)C(=O)N1 [Compound 4a, (+)-(S)-3-(1H-indol-3-yl)pyrrolidine-2,5-dione] | > 50000 | IC50 (hIDO1 [1]): 3300 nM |
| COc1ccc2[nH]cc(C3CC(=O)NC3=O)c2c1 (stereo not drawn) [Compound 13, 3-(5-methoxy-1H-indol-3-yl)pyrrolidine-2,5-dione] | 53000 |  |
| O=C1C[C@@H](c2c[nH]c3cc(Br)c(F)cc23)C(=O)N1 [Compound 10a, (S)-3-(6-bromo-5-fluoro-1H-indol-3-yl)pyrrolidine-2,5-dione] | 8000 |  |
| O=C1CC(c2c[nH]c3cc(Br)c(F)cc23)C(=O)N1 (stereo not drawn) [Compound 9, 3-(6-bromo-5-fluoro-1H-indol-3-yl)pyrrolidine-2,5-dione] | 290 | IC50 (hIDO1 [3]): 7000 nM |
| O=C1CC(c2c[nH]c3cc(F)ccc23)C(=O)N1 (stereo not drawn) [Compound 17, 3-(6-fluoro-1H-indol-3-yl)pyrrolidine-2,5-dione] | 3400 |  |
| N#Cc1ccc2[nH]cc(C3CC(=O)NC3=O)c2c1 (stereo not drawn) [Compound 14, 3-(2,5-dioxopyrrolidin-3-yl)-1H-indole-5-carbonitrile] | 12000 |  |
| O=C1CC(c2cccc3ccccc23)C(=O)N1 (stereo not drawn) [Compound 23, 3-(naphthalen-1-yl)pyrrolidine-2,5-dione] | 18000 |  |
| O=C1CC(c2c[nH]c3ccc(Cl)cc23)C(=O)N1 (stereo not drawn) [Compound 5, 3-(5-chloro-1H-indol-3-yl)pyrrolidine-2,5-dione] | 2100 | IC50 (hIDO1 [1]): 590 nM |
| O=C1CC(c2c[nH]c3cc(Cl)ccc23)C(=O)N1 (stereo not drawn) [Compound 18, 3-(6-chloro-1H-indol-3-yl)pyrrolidine-2,5-dione] | 2100 | IC50 (hIDO1 [1]): 500 nM |
| Cc1cc2[nH]cc(C3CC(=O)NC3=O)c2cc1F (stereo not drawn) [Compound 16, 3-(5-fluoro-6-methyl-1H-indol-3-yl)pyrrolidine-2,5-dione] | 46000 |  |
| O=C1CC(c2c[nH]c3ccc(Br)cc23)C(=O)N1 (stereo not drawn) [Compound 11, 3-(5-bromo-1H-indol-3-yl)pyrrolidine-2,5-dione] | 370 | IC50 (hIDO1 [3]): 5900 nM |
| O=C1CC(c2c[nH]c3cc(Cl)c(F)cc23)C(=O)N1 (stereo not drawn) [Compound 7, 3-(6-chloro-5-fluoro-1H-indol-3-yl)pyrrolidine-2,5-dione] | 490 |  |
